Literature values in US12090144B2, “Photocurable hydrogel loaded with VH298-modified exosome and method of preparation and use thereof” (Chinese PLA General Hospital, priority 2022, dated 2024).

Settings: background statement

In the case of Cc1ncsc1-c1ccc(CNC(=O)[C@@H]2C[C@@H](O)CN2C(=O)[C@@H](NC(=O)C2(C#N)CC2)C(C)(C)C)cc1 [VH298], the water solubility is given as “poor water solubility”.
